The target in assay [1] is T1, TMEM16F (Homo sapiens, UniProt Q4KMQ2).
T1 construct: expressed in transfected cells; host or cells: HEK293 cells
T1 sequence (Q4KMQ2 1-910): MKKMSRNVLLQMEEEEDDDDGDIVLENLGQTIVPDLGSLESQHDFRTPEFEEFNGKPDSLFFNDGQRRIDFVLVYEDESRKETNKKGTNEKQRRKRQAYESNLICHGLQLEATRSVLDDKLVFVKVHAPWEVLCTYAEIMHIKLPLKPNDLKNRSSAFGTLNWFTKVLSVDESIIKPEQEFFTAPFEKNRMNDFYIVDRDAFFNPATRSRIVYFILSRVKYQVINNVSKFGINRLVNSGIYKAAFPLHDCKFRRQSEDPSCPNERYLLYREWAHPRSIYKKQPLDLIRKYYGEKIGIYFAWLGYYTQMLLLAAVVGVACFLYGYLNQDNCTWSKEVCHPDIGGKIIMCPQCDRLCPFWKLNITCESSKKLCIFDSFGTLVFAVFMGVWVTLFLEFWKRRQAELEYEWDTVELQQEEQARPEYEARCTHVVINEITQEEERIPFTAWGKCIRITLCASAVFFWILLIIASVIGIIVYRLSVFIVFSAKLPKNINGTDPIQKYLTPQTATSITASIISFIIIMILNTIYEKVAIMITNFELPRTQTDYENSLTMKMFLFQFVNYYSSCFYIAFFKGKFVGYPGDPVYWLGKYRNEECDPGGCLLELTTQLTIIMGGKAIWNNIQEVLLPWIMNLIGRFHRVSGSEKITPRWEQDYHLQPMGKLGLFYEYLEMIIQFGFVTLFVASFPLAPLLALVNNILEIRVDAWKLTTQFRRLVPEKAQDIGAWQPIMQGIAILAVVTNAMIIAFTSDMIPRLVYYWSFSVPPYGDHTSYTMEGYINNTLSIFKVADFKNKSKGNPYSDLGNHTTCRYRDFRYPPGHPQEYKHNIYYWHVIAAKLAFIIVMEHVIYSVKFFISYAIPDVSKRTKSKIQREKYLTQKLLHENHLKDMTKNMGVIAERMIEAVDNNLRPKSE
Description: Whole cell currents in HEK293 cells expressing TMEM16F (patch clamp). Type of assay: cell-based. The settings on record: overexpressed TMEM16F; niclosamide 1 μM. How it is done: FIG. 14: The TMEM16-inhibitor niflumic acid attenuates inflammatory airway disease. • A,B) OVA-sensitization induced pronounced goblet cell metaplasia as indicated by alcian blue positivity. Exposure to carbachol (CCH, 25 mg/ml, nebulizer) induced release of mucus and airway […]. Bars indicate […]. […] Mean±SEM; *significant inhibition by NFA (paired ttest). # significant difference when compared to OVA (unpaired t-test). (n) number of airways analysed or number of cells examined.
FIG. 15: Inhibition of TMEM16A and TMEM16F by niclosamide. • A) TMEM16A whole cell currents in overexpressing HEK293 cells. […]
OVA-induced allergic airway inflammation in mice caused pronounced airway goblet cell metaplasia. […] The two main TMEM16 paralogs expressed in airway epithelial and smooth muscle cells, TMEM16A and TMEM16F, were expressed in HEK293 cells and the whole cell currents upon activation by the Ca^2+ ionophore ionomycin (Iono) were measured. […]
Similar to TMEM16A, also overexpressed TMEM16F was inhibited by niclosamide (FIG. 15D). […] TMEM16A was activated by ionomycin and TMEM16A currents were measured as iodide quenching.

The subject of assay [2] is excised wt colon. Kind of assay: Acute mucus secretion in in vitro perfused excised colon, niclosamide in perfusate. The settings on record: niclosamide 10 μM in perfusate. Details: species or system mouse. An excerpt: Cholinergic stimulation released mucus from freshly isolated TMEM16A+/+ and TMEM16A−/− intestine (FIG. 6D-F). Mucus release was examined in more detail by perfusing freshly excised colon and collecting released mucus in vitro. For in vitro perfusion of intestines, mice were sacrificed and excised intestines were placed immediately in ice-cold Ringer solution and carefully flushed to remove residual luminal contents. The intestinal segments were mounted and perfused vertically in a custom-designed perfusion chamber with a constant temperature.
It was examined whether TMEM16F is also important for intestinal mucus secretion and acute mucus release was measured in freshly excised colonic segments mounted in a vertical custom-designed perfusion chamber at 37° C. and 24 mmol/1 HCO3^−/5% CO2. Secretion of mucus was induced by basolateral perfusion with methacholine (MCh) and by luminal perfusion of ATP. […]
It was examined whether niclosamide inhibits intestinal mucus secretion. […] The present inventors detected reduced Ca^2+ increase upon ATP-stimulation of freshly isolated crypt cells from Vil1-Cre TMEM16F^flox/flox mice. […] Increase in FM4-64 fluorescence in the plasma membrane is a marker for membrane exocytosis. The present inventors detected that ATP-stimulation (but not cholinergic stimulation) of HEK293 cells expressing TMEM16F induced FM4-64 fluorescence, i.e. exocytosis.

Assay [3] relates to colon. Description: Niclosamide applied in vivo (ip or gavage), then colon perfusion and PAS staining. On the set-up: species or system mouse. The settings on record: for ATP-induced release of mucus: three days before perfusion, 100 μM ATP. The method, then: FIG. 18: Effect of niclosamide on intestinal mucus release. • A) Acute mucus secretion in excised wt colon activated by methacholine or ATP, respectively, and inhibition by acute perfusion with niclosamide (niclosamide; 10 μM). • B-D) Effect of intraperitoneal injection of niclosamide (20 mg/kg/day) on PAS staining (B,C) and acute mucus discharge induced by perfusion with 100 μM ATP (D). • E-G) Effect of application of niclosamide by gavage (20 mg/kg/day) on PAS staining (E,F) and acute mucus discharge induced by perfusion with 100 μM ATP (G). Mean±SEM; #significant difference when compared to -niclosamide (unpaired t-test); (n) number of perfused colons and PAS stainings analyzed, respectively. Bars indicate 50 μm.
It was examined whether niclosamide inhibits intestinal mucus secretion. To this end, niclosamide was added to the perfusate. […] Niclosamide was applied in vivo by intraperitoneal (ip) injection, or was applied orally by gavage three days before intestinal perfusion. […] TMEM16F plays a crucial role for intracellular Ca^2+ signaling. The present inventors detected reduced Ca^2+ increase upon ATP-stimulation of freshly isolated crypt cells from Vil1-Cre TMEM16F^flox/flox mice. In contrast, CCH-induced Ca^2+ rise was not affected. […] Increase in FM4-64 fluorescence in the plasma membrane is a marker for membrane exocytosis. The present inventors detected that ATP-stimulation (but not cholinergic stimulation) of HEK293 cells expressing TMEM16F induced FM4-64 fluorescence, i.e. exocytosis.

“Also recorded” adds a separate entry of the source.

Take `O=C(Nc1ccc([N+](=O)[O-])cc1Cl)c1cc(Cl)ccc1O` [niclosamide, 5-chloro-N-(2-chloro-4-nitrophenyl)-2-hydroxybenzamide]: the “TMEM16F current (current/voltage relationship)” value in assay [1] is recorded as “inhibited; also recorded: inhibition”. Further, the “mucus secretion activated by basolateral MCh” value in assay [2] is reported as “not”. Moreover, the “mucus secretion activated by luminal ATP” value in assay [2] is recorded as “clearly inhibited”. For the same compound, the “ATP-induced release of mucus” value in assay [3] (intraperitoneal injection 20 mg/kg/day) and in assay [3] (oral by gavage 20 mg/kg/day) was “completely inhibited” in each case. For the same compound, the “mucus accumulation in goblet cells (PAS staining)” value in assay [3] (ip or oral niclosamide) is “did not accumulate”.
